The test system of this test is P388 leukemia ip, CD2F1 mice, survival T/C. Nature of the test: NCI In Vivo Anticancer Drug Screen. Data for tumor model P388 Leukemia (intraperitoneal) in CD2F1 (CDF1) mice. The settings on record: endpoint: median survival time, higher = longer survival. The method in brief:
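Mice carrying the transplanted tumor received test compound or vehicle. Survival was recorded in each group, and the value is the treated-group measurement divided by that of the vehicle-treated control group.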

The mark [1] stands for this setting: dose: 60.0 mg/kg/injection, schedule: Q01DX005 (ip), vehicle: Klucel (hydroxypropylcellulose) (HPC).
Where [2] appears, read: dose: 120.0 mg/kg/injection, schedule: Q01DX005 (ip), vehicle: Klucel (hydroxypropylcellulose) (HPC).
[3] abbreviates: dose: 240.0 mg/kg/injection, schedule: Q01DX005 (ip), vehicle: Klucel (hydroxypropylcellulose) (HPC).
Setting [4] is: dose: 50.0 mg/kg/injection, schedule: Q01DX009 (ip), vehicle: Klucel (hydroxypropylcellulose) (HPC).
The mark [5] stands for this setting: dose: 50.0 mg/kg/injection, schedule: Q01DX005 (ip), vehicle: saline with Tween-80.
Where [6] appears, read: dose: 100.0 mg/kg/injection, schedule: Q01DX005 (ip), vehicle: saline with Tween-80.
Where [7] appears, read: dose: 200.0 mg/kg/injection, schedule: Q01DX005 (ip), vehicle: saline with Tween-80.

Several values for one entry are separate records, joined by “and”; a condition that tells them apart may be missing. Equal entries are not always repeated. Inconclusive results and toxic doses are left out.

Here are results for 18 compounds from PubChem BioAssay AID330 (DTP/NCI, 2004).

As to `COC1=CC(=O)C(=O)C=C1C(C)(C)C`, the T/C runs as follows: (dose: 2.8 mg/kg/injection, schedule: Q01DX005 (ip), vehicle: saline with Tween-80) 107 % of control; (dose: 5.6 mg/kg/injection, schedule: Q01DX005 (ip), vehicle: saline with Tween-80) 100 % of control; (dose: 11.25 mg/kg/injection, schedule: Q01DX005 (ip), vehicle: saline with Tween-80) 107 % of control; (dose: 22.5 mg/kg/injection, schedule: Q01DX005 (ip), vehicle: saline with Tween-80) 98 % of control and 115 % of control; (dose: 45.0 mg/kg/injection, schedule: Q01DX005 (ip), vehicle: saline with Tween-80) 91 % of control and 96 % of control.

Regarding `Cc1cc(C)c(C2=NO[C@H]3c4ccccc4OC[C@@H]23)c(C)c1`, the T/C (dose: 50.0 mg/kg/injection, schedule: Q01DX005 (ip), vehicle: Klucel (hydroxypropylcellulose) (HPC)) is 105 % of control; the T/C (dose: 100.0 mg/kg/injection, schedule: Q01DX005 (ip), vehicle: Klucel (hydroxypropylcellulose) (HPC)) is 96 % of control; the T/C (dose: 200.0 mg/kg/injection, schedule: Q01DX005 (ip), vehicle: Klucel (hydroxypropylcellulose) (HPC)) is 89 % of control.

`C[N+]1(CSc2ccccc2)CCCCC1`: the T/C was 100 % of control (dose: 12.5 mg/kg/injection, schedule: Q01DX009 (ip), vehicle: saline with Tween-80) and 98 % of control (dose: 25.0 mg/kg/injection, schedule: Q01DX009 (ip), vehicle: saline with Tween-80).

Consider `O=C(O)c1cnc2cc3c(cc2c1Nc1ccccc1)OCO3`, for which the T/C is, setting by setting: under setting [1], 99 % of control; under setting [2], 102 % of control; under setting [3], 90 % of control.

`CNC(=O)OCCC(OC(=O)NC)C1CCC2C3CCC4CC(OC(=O)c5ccccc5)CCC4(C)C3CCC12C` (centres undefined): the T/C runs as follows: under setting [1], 107 % of control; under setting [2], 98 % of control; under setting [3], 93 % of control.

As to `CCNc1cc(N)[n+](CC)c2n[nH]c(N)c12`, the T/C was 112 % of control (dose: 50.0 mg/kg/injection, schedule: Q01DX005 (ip), vehicle: saline) and 111 % of control (dose: 100.0 mg/kg/injection, schedule: Q01DX005 (ip), vehicle: saline).

For `CCOC(=O)C1(O)CC(O)C(O)C(O)C1OC` (centres undefined), the T/C reads like this: (dose: 100.0 mg/kg/injection, schedule: Q01DX001 (ip), vehicle: saline with Tween-80) 94 % of control; (dose: 200.0 mg/kg/injection, schedule: Q01DX001 (ip), vehicle: saline with Tween-80) 92 % of control; (dose: 400.0 mg/kg/injection, schedule: Q01DX001 (ip), vehicle: saline with Tween-80) 94 % of control.

Consider `CCOC(=O)Nc1nc2ccc(NC(C)=O)cc2s1`, for which the T/C runs as follows: (dose: 6.25 mg/kg/injection, schedule: Q01DX009 (ip), vehicle: Klucel (hydroxypropylcellulose) (HPC)) 104 % of control; (dose: 12.5 mg/kg/injection, schedule: Q01DX009 (ip), vehicle: Klucel (hydroxypropylcellulose) (HPC)) 105 % of control; (dose: 25.0 mg/kg/injection, schedule: Q01DX009 (ip), vehicle: Klucel (hydroxypropylcellulose) (HPC)) 102 % of control; under setting [4], 96 % of control.

In the case of `O=C(NC1COB(c2cccc([N+](=O)[O-])c2)OC1c1ccc([N+](=O)[O-])cc1)C(Cl)Cl` (centres undefined), the T/C under setting [1] was 98 % of control, the T/C under setting [2] was 98 % of control and the T/C under setting [3] was 93 % of control.

As for `C=C1C2(C(=O)O)CCC(C2)C1(C)C` (centres undefined), the T/C reads like this: under setting [5], 105 % of control; under setting [6], 101 % of control; under setting [7], 111 % of control.

Regarding `Cc1cc(NS(=O)(=O)c2ccc(N=c3c4ccccc4n(-c4ccccc4)c4ccccc34)cc2)no1`, the T/C reads like this: under setting [5], 103 % of control; under setting [6], 92 % of control; under setting [7], 90 % of control.

On to `C=C(C)c1ccc2c(c1)[C@H](OC(=O)c1ccccc1)C[C@H]1[C@](C)(COC(=O)c3ccccc3)CCC[C@]21C`, for which the T/C was 105 % of control (dose: 60.0 mg/kg/injection, schedule: Q01DX005 (ip), vehicle: saline with Tween-80); 92 % of control (dose: 120.0 mg/kg/injection, schedule: Q01DX005 (ip), vehicle: saline with Tween-80); 90 % of control (dose: 240.0 mg/kg/injection, schedule: Q01DX005 (ip), vehicle: saline with Tween-80).

Turning to `O=C1N[C@@H]([C@H]2CC[C@H](Cl)CN2)C(=O)N[C@H]1[C@H]1CC[C@H](Cl)CN1`, the T/C is 118 % of control (dose: 0.25 mg/kg/injection, schedule: Q01DX005 (iv), vehicle: saline); 158 % of control and 182 % of control (dose: 0.39 mg/kg/injection, schedule: Q01DX009 (ip), vehicle: water); 118 % of control (dose: 0.5 mg/kg/injection, schedule: Q01DX005 (iv), vehicle: saline); 184 % of control and 214 % of control (dose: 0.78 mg/kg/injection, schedule: Q01DX009 (ip), vehicle: water); 123 % of control (dose: 1.0 mg/kg/injection, schedule: Q01DX001 (ip), vehicle: saline); 181 % of control (dose: 1.0 mg/kg/injection, schedule: Q01DX005 (ip), vehicle: saline). Further, the T/C is, setting by setting: (dose: 1.0 mg/kg/injection, schedule: Q01DX005 (iv), vehicle: saline) 120 % of control; (dose: 1.56 mg/kg/injection, schedule: Q01DX009 (ip), vehicle: water) 122 % of control and 223 % of control; (dose: 2.0 mg/kg/injection, schedule: Q01DX001 (ip), vehicle: saline) 123 % of control; (dose: 2.0 mg/kg/injection, schedule: Q01DX005 (ip), vehicle: saline) 227 % of control; (dose: 2.0 mg/kg/injection, schedule: Q01DX005 (iv), vehicle: saline) 157 % of control; (dose: 2.0 mg/kg/injection, schedule: Q01DX005 (oral), vehicle: saline) 180 % of control. Moreover, the T/C reads like this: (dose: 4.0 mg/kg/injection, schedule: Q01DX001 (ip), vehicle: saline) 151 % of control; (dose: 4.0 mg/kg/injection, schedule: Q01DX005 (ip), vehicle: saline) 100 % of control; (dose: 4.0 mg/kg/injection, schedule: Q01DX005 (iv), vehicle: saline) 200 % of control; (dose: 4.4 mg/kg/injection, schedule: Q01DX001 (ip), vehicle: saline) 172 % of control and 176 % of control and 177 % of control; (dose: 6.7 mg/kg/injection, schedule: Q01DX001 (ip), vehicle: saline) 172 % of control and 190 % of control and 211 % of control; (dose: 10.0 mg/kg/injection, schedule: Q01DX001 (ip), vehicle: saline) 216 % of control and 220 % of control and 250 % of control. The T/C (dose: 16.0 mg/kg/injection, schedule: Q01DX001 (ip), vehicle: saline) was 209 % of control.

Take `C=C1C(=O)C23C(O)CC4C(C)(C)[C@@H](OC(C)=O)CCC4(C)[C@]2(O)CCC1[C@@H]3O` (some centres undefined): the T/C (dose: 5.0 mg/kg/injection, schedule: Q01DX005 (ip), vehicle: Klucel (hydroxypropylcellulose) (HPC)) is 106 % of control; the T/C (dose: 10.0 mg/kg/injection, schedule: Q01DX005 (ip), vehicle: Klucel (hydroxypropylcellulose) (HPC)) was 110 % of control; the T/C (dose: 20.0 mg/kg/injection, schedule: Q01DX005 (ip), vehicle: Klucel (hydroxypropylcellulose) (HPC)) was 112 % of control; the T/C (dose: 40.0 mg/kg/injection, schedule: Q01DX005 (ip), vehicle: Klucel (hydroxypropylcellulose) (HPC)) is 114 % of control.

Regarding `COc1ccc(C[n+]2ccc3ccccc3c2C#N)cc1OC`, the T/C (dose: 12.5 mg/kg/injection, schedule: Q04DX002 (ip), vehicle: saline) is 111 % of control and the T/C (dose: 25.0 mg/kg/injection, schedule: Q04DX002 (ip), vehicle: saline) is 109 % of control.

As to `Cc1cc(C)c2c(c1)sc1nncn12`, the T/C was 118 % of control under setting [4]; 94 % of control (dose: 100.0 mg/kg/injection, schedule: Q01DX009 (ip), vehicle: Klucel (hydroxypropylcellulose) (HPC)); 92 % of control (dose: 200.0 mg/kg/injection, schedule: Q01DX009 (ip), vehicle: Klucel (hydroxypropylcellulose) (HPC)).

On to `CCCCNC(C)(C)C(SSSC(c1cccs1)C(C)(C)NCCCC)c1cccs1` (centres undefined), for which the T/C runs as follows: under setting [5], 121 % of control; under setting [6], 120 % of control; (dose: 100.0 mg/kg/injection, schedule: Q04DX003 (ip), vehicle: saline with Tween-80) 101 % of control; under setting [7], 123 % of control; (dose: 200.0 mg/kg/injection, schedule: Q04DX003 (ip), vehicle: saline with Tween-80) 105 % of control; (dose: 400.0 mg/kg/injection, schedule: Q04DX003 (ip), vehicle: saline with Tween-80) 105 % of control.

As for `COCC(O)COC`, the T/C was 94 % of control (dose: 50.0 mg/kg/injection, schedule: Q01DX009 (ip), vehicle: saline); 96 % of control (dose: 100.0 mg/kg/injection, schedule: Q01DX009 (ip), vehicle: saline); 87 % of control (dose: 200.0 mg/kg/injection, schedule: Q01DX009 (ip), vehicle: saline).
